# Measured values reported in article PMC11606603, “The membrane domains of mammalian adenylyl cyclases are lipid receptors” (eLife, 2024).
# “And” between values parts separate entries of the source, which are not always exact repeats. Identical values can stand only once. “Also recorded” adds a separate entry of the source.
# How the values were obtained:
# Format in all cases: biochemical
# mAC4 = biological target: T1, mAC4 (Homo sapiens, UniProt Q8NFM4); assay: AC assay, Gsα-stimulated mAC4 in membranes from transfected HEK293 cells
# T1 construct: Human mAC genes were from GenScript and fitted with a C-terminal FLAG-tag; FLAG (C); made in house; host or cells: HEK293, permanently transfected; membrane preparation
# T1 sequence (Q8NFM4 1-1077): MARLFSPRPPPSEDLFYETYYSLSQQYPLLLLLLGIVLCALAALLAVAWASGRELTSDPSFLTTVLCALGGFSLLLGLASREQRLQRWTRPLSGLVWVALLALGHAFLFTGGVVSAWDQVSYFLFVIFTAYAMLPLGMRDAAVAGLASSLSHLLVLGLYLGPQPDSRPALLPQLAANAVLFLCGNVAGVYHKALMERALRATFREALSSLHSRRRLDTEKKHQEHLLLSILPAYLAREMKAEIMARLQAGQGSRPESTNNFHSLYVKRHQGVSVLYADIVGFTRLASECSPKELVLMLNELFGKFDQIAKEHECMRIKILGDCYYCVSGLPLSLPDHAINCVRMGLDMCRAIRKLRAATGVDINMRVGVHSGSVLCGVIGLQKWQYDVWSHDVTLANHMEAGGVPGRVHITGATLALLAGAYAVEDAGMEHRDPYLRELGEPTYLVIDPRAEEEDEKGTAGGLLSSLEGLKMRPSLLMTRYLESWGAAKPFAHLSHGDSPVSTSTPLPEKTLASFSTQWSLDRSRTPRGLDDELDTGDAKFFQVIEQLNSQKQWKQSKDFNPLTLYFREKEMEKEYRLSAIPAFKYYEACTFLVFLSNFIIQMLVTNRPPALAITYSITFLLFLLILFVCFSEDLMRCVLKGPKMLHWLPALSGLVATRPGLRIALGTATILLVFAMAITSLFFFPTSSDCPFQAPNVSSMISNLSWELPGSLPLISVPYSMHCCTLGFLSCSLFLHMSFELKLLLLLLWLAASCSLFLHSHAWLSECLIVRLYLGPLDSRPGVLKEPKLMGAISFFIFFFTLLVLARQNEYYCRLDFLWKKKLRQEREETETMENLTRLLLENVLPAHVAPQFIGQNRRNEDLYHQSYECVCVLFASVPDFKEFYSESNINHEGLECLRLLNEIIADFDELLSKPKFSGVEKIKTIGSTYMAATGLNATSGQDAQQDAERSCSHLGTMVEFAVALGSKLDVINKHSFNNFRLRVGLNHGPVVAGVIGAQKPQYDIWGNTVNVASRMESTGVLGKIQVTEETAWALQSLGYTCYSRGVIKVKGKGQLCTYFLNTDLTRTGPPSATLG
# Summary of the method: (§1)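 cAMP detected with a Cisbio kit, calibrated by a cAMP standard curve each run. Reaction: 1 mM ATP, 2 mM MgCl2, 3 mM creatine phosphate, 60 μg/ml creatine kinase, 50 mM MOPS pH 7.5. Enzyme source: membranes of stably transfected HEK293 (G418-selected) carrying FLAG-tagged human AC.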
# mAC1 = biological target: T2, mAC1 (Homo sapiens, UniProt Q08828); assay: AC assay, Gsα-stimulated mAC1 in membranes from transfected HEK293 cells; conditions: 20 µM; in words
# T2 construct: Human mAC genes were from GenScript and fitted with a C-terminal FLAG-tag; FLAG (C); made in house; host or cells: HEK293, permanently transfected; membrane preparation
# T2 sequence (Q08828 whole entry): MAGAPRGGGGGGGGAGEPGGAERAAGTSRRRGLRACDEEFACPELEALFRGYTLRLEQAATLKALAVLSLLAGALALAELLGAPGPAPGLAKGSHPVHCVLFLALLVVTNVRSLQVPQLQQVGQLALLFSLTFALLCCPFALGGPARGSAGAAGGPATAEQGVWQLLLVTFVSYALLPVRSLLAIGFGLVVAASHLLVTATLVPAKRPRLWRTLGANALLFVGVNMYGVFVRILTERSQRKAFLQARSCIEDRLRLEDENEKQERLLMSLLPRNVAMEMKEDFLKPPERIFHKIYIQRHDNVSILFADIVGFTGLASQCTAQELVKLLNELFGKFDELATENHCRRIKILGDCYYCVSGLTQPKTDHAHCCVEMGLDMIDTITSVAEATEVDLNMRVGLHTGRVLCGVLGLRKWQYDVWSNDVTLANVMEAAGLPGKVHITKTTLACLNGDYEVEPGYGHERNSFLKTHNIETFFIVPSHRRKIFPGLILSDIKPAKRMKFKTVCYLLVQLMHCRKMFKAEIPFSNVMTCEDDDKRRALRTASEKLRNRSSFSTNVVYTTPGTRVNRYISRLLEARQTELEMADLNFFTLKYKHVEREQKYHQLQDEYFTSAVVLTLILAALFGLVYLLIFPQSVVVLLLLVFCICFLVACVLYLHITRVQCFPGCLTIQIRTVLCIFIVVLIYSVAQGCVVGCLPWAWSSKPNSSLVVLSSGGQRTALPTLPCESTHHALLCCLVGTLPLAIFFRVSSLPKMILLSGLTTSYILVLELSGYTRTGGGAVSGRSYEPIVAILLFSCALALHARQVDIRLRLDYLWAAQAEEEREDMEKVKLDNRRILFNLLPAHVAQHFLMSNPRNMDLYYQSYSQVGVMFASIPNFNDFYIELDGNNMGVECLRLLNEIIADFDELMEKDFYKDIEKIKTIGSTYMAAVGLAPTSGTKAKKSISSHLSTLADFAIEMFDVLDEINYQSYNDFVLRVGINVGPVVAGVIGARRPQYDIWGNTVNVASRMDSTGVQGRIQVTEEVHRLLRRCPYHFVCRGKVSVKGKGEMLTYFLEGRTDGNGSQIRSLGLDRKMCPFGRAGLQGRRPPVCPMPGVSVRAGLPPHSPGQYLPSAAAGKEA
# Summary of the method: as §1
# mAC2 = biological target: T3, mAC2 (Homo sapiens, UniProt Q08462); assay: AC assay, Gsα-stimulated mAC2 in membranes from transfected HEK293 cells; conditions: for mAC2 activity [%] (100% = 300nM Gsα stimulation): Figure 5 B
# T3 construct: Human mAC genes were from GenScript and fitted with a C-terminal FLAG-tag; FLAG (C); made in house; host or cells: HEK293, permanently transfected; membrane preparation
# T3 sequence (Q08462 whole entry): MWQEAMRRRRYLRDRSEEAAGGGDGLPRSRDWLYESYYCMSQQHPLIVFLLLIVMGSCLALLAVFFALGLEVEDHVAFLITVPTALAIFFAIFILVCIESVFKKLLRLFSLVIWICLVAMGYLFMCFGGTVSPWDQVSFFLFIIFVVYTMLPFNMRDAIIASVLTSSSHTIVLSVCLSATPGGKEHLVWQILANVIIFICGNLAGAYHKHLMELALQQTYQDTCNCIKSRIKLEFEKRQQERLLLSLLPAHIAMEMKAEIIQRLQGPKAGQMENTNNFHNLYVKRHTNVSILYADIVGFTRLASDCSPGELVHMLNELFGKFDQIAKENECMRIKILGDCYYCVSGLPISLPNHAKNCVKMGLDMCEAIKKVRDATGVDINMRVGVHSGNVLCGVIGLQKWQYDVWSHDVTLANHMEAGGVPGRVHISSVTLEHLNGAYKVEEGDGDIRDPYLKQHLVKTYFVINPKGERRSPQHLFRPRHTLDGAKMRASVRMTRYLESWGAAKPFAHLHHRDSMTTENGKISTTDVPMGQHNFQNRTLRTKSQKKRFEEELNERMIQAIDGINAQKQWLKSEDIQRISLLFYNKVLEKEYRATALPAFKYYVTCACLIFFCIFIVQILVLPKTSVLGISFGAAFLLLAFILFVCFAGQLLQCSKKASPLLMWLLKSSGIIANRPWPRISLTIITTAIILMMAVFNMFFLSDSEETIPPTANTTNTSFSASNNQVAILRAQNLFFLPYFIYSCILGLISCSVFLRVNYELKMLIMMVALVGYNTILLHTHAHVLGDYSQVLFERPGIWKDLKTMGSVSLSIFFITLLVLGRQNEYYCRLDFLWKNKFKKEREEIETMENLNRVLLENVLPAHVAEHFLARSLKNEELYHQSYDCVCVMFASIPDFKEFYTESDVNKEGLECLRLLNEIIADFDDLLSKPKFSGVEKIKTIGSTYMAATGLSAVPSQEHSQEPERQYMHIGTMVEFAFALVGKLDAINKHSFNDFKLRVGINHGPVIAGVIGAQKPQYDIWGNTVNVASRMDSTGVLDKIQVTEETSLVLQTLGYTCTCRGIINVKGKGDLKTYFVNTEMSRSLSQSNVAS
# T3 sequence (P63092 2-394 Q227L partner): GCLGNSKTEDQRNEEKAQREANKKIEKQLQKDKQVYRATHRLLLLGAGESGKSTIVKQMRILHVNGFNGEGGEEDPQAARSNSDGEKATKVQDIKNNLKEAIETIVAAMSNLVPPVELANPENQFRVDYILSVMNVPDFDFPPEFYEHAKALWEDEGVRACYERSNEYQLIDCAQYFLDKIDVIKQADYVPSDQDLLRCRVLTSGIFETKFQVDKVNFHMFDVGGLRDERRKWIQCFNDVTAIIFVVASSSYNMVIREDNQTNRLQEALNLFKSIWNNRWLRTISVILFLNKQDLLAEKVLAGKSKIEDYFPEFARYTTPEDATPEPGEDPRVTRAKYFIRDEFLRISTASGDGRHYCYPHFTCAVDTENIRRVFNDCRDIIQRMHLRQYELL
# Summary of the method: as §1
# mAC5 = biological target: T4, mAC5 (Homo sapiens, UniProt O95622); assay: AC assay, Gsα-stimulated mAC5 in membranes from transfected HEK293 cells
# T4 construct: Human mAC genes were from GenScript and fitted with a C-terminal FLAG-tag; FLAG (C); made in house; host or cells: HEK293, permanently transfected; membrane preparation
# T4 sequence (O95622 whole entry): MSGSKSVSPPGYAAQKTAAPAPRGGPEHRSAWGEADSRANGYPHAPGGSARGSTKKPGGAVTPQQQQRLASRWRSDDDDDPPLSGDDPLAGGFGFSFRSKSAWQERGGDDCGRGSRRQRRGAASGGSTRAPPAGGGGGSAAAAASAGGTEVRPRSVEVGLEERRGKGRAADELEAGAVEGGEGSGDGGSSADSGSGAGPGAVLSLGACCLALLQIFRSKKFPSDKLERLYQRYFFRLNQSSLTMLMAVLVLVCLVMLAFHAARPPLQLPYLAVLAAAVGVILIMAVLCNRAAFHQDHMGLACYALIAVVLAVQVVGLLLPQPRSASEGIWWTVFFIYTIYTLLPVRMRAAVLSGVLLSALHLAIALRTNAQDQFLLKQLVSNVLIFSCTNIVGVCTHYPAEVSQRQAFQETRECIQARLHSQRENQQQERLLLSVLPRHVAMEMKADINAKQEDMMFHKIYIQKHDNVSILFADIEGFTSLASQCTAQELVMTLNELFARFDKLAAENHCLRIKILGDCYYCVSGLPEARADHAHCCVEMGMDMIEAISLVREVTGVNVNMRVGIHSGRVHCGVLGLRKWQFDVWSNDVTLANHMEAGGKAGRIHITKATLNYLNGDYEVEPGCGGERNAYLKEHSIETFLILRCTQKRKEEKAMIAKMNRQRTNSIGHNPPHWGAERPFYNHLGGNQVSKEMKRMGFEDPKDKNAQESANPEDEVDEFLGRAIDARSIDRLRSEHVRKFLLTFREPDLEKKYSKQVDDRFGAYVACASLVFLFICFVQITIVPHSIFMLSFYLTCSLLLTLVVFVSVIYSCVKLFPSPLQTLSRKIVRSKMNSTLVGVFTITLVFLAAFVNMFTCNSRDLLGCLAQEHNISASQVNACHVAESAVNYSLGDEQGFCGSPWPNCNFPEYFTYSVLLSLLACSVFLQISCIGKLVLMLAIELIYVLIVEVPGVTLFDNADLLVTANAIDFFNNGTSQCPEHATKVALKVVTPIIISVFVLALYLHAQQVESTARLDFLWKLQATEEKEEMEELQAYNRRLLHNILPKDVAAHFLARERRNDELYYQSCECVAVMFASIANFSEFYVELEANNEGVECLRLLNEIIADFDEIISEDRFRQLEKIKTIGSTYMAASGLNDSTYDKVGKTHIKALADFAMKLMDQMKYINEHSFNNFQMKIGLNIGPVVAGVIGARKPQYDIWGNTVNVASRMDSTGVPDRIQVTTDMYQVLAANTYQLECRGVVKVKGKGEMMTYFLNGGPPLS
# Summary of the method: as §1
# mAC8 = biological target: T5, mAC8 (Homo sapiens, UniProt P40145); assay: AC assay, Gsα-stimulated mAC8 in membranes from transfected HEK293 cells
# T5 construct: Human mAC genes were from GenScript and fitted with a C-terminal FLAG-tag; FLAG (C); made in house; host or cells: HEK293, permanently transfected; membrane preparation
# T5 sequence (P40145 whole entry): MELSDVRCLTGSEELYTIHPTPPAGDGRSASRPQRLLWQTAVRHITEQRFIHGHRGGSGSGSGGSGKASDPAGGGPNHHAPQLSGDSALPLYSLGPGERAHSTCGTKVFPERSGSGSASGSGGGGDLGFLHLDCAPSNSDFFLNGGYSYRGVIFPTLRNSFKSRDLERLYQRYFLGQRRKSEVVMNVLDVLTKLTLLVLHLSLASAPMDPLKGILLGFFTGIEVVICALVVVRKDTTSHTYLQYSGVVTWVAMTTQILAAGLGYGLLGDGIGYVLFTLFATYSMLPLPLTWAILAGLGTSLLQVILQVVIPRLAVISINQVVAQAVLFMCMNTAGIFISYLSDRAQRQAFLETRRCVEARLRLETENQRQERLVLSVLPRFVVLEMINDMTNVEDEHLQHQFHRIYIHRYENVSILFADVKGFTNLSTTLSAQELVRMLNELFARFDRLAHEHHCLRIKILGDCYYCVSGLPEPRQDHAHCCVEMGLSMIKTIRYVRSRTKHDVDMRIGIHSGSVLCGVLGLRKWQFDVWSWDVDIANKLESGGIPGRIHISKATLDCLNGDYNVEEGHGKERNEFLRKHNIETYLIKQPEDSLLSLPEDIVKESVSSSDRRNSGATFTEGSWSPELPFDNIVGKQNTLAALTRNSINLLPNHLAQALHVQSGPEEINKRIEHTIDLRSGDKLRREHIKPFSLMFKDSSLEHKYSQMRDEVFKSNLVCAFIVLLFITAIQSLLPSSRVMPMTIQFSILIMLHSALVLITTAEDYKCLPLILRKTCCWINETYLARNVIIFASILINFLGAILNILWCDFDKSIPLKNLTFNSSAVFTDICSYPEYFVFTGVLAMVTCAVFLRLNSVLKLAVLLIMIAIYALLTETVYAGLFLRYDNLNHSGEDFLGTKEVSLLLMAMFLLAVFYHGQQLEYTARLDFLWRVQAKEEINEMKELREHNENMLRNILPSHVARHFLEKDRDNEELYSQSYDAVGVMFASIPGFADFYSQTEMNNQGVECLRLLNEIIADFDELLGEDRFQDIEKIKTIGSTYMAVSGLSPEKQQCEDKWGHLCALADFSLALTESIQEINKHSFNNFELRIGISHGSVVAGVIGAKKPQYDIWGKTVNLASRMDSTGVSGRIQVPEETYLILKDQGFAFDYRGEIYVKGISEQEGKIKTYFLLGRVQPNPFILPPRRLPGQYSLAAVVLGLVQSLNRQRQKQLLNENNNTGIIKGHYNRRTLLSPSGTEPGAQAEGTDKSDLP
# Summary of the method: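 Adenylyl cyclase activity was measured in 100,000 × g membrane fractions prepared from HEK293 cells permanently transfected with C-terminally FLAG-tagged human AC isoforms. Assays contained 1 mM ATP and 2 mM MgCl2 with an ATP-regenerating system at pH 7.5.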
# mAC3 = biological target: T6, mAC3 (Homo sapiens, UniProt O60266); assay: AC assay, Gsα-stimulated mAC3 in membranes from transfected HEK293 cells; conditions: 300 nM Gsα + 20 µM oleic acid, 37°C
# T6 construct: Human mAC genes were from GenScript and fitted with a C-terminal FLAG-tag; FLAG (C); made in house; host or cells: HEK293, permanently transfected; membrane preparation
# Summary of the method: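 cAMP formation was quantified by HTRF against a cAMP standard curve, with EC50 or IC50 derived by curve fitting. Reactions contained 1 mM ATP, 2 mM MgCl2, 3 mM creatine phosphate, 60 μg/ml creatine kinase and 50 mM MOPS pH 7.5, using membranes of stably transfected HEK293 cells carrying FLAG-tagged human AC.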
# [1] = Figure 5 A, 20 µM oleic acid, 300 nM Gsα
smiles,measurement,setting,value
"CCCCCCCC/C=C\CCCCCCCC(=O)O [Oleic acid, Oleic ((9Z)-octadecenoic) acid]",mAC4 activity [%] (100% = 300nM Gsα stimulation); 20µM fatty acid concentration,"mAC4; 20 µM fatty acid, 300 nM Gsα, single experiments",100% and 72% and 120% and 92%
same,Effect of lipid on 300 nM Gsα-stimulated mAC4,"mAC4; 20 µM, in words",unaffected
same,"mAC activity [%] (100% = 300nM Gsα stimulation); 20µM Oleic acid concentration, mAC4",mAC4; [1],72% and 92% and 64% and 100%
same,Effect of lipid on 300 nM Gsα-stimulated mAC1,mAC1,slightly attenuated
same,Effect of lipid on 300 nM Gsα-stimulated mAC2,"mAC2; 20 µM, in words",significantly enhanced
same,mAC2 activity [%] (100% = 300nM Gsα stimulation); 20µM fatty acid concentration,"mAC2; Figure 5-figure supplement 1 left, 20 µM",252% and 212% and 173% and 181% and 196% and 228% and 168%
same,mAC2 activity [%] (100% = 300nM Gsα stimulation),mAC2; oleic acid 0.3 µM,100%
same,mAC2 activity [%] (100% = 300nM Gsα stimulation),mAC2; oleic acid 1 µM,98% and 100% and 117% and 87%
same,mAC2 activity [%] (100% = 300nM Gsα stimulation),mAC2; oleic acid 3 µM,82% and 99% and 116% and 107%
same,mAC2 activity [%] (100% = 300nM Gsα stimulation),mAC2; oleic acid 6 µM,120% and 95% and 119% and 162% and 110% and 87%
same,mAC2 activity [%] (100% = 300nM Gsα stimulation),mAC2; oleic acid 10 µM,157% and 167% and 142% and 171% and 162% and 123%
same,mAC2 activity [%] (100% = 300nM Gsα stimulation),mAC2; oleic acid 20 µM,196% and 228% and 168% and 252% and 212% and 173% and 181%
same,EC50,mAC2; enhancement of 300 nM Gsα-stimulated activity,8.6 µM
same,mAC5 activity [%] (100% = 300nM Gsα stimulation),mAC5; 20µM fatty acid concentration,93% and 117% and 135% and 138%
same,Effect of lipid on Gsα-stimulated mAC5,"mAC5; 20 µM, in words",not enhanced; also recorded: unaffected
same,"mAC activity [%] (100% = 300nM Gsα stimulation); 20µM Oleic acid concentration, mAC5",mAC5; [1],135% and 138% and 161% and 84% and 105% and 93% and 117%
same,"activity, mAC5 + 20µM Oleic acid",mAC5; Gsα 30 nM,0.080 cAMP nmol/mg/min
same,"activity, mAC5 + 20µM Oleic acid",mAC5; Gsα 60 nM,0.233 cAMP nmol/mg/min and 0.334 cAMP nmol/mg/min
same,"activity, mAC5 + 20µM Oleic acid",mAC5; Gsα 100 nM,0.353 cAMP nmol/mg/min and 0.362 cAMP nmol/mg/min
same,"activity, mAC5 + 20µM Oleic acid",mAC5; Gsα 300 nM,0.752 cAMP nmol/mg/min and 1.165 cAMP nmol/mg/min
same,"activity, mAC5 + 20µM Oleic acid",mAC5; Gsα 450 nM,1.160 cAMP nmol/mg/min and 1.405 cAMP nmol/mg/min
same,"activity, mAC5 + 20µM Oleic acid",mAC5; Gsα 600 nM,1.213 cAMP nmol/mg/min and 1.684 cAMP nmol/mg/min
same,"activity, mAC5 + 20µM Oleic acid",mAC5; Gsα 800 nM,1.245 cAMP nmol/mg/min and 1.702 cAMP nmol/mg/min
same,"activity, mAC5 + 20µM Oleic acid",mAC5; Gsα 1000 nM,1.415 cAMP nmol/mg/min and 1.818 cAMP nmol/mg/min
same,mAC5 activity [%] (100% = 300nM Gsα stimulation),"mAC5; fatty acid 1 µM, individual experiments",126% and 196% and 115% and 78% and 64%
same,mAC5 activity [%] (100% = 300nM Gsα stimulation),"mAC5; fatty acid 3 µM, individual experiments",142% and 91% and 87%
same,mAC5 activity [%] (100% = 300nM Gsα stimulation),"mAC5; fatty acid 6 µM, individual experiments",146% and 127% and 77% and 90%
same,mAC5 activity [%] (100% = 300nM Gsα stimulation),"mAC5; fatty acid 10 µM, individual experiments",126% and 140% and 134% and 93%
same,mAC5 activity [%] (100% = 300nM Gsα stimulation),"mAC5; fatty acid 20 µM, individual experiments",93% and 117% and 135% and 138%
same,activity [%] (100% = 300nM Gsα stimulation),"mAC5; mAC5, 20µM Oleic acid concentration, Figure 9 C",161% and 84% and 93% and 117% and 135% and 138%
same,mAC8 activity [%] (100% = 300nM Gsα stimulation),mAC8; 20µM fatty acid concentration,134% and 139%
same,Effect of lipid on 300 nM Gsα-stimulated mAC8,"mAC8; 20 µM, in words",unaffected
same,"mAC activity [%] (100% = 300nM Gsα stimulation); 20µM Oleic acid concentration, mAC8",mAC8; [1],134% and 139%
same,time over which the action on mAC3 was linear,mAC3,> 25 min
